Laboratory results published in patent US8933202B2, “AXL antibodies” (U3 Pharma GmbH, priority 2007, dated 2015).

Assays:
Type in all cases: cell-based, human
C-8161 melanoma cells = assay: Soft agar colony formation assay, combination with cisplatin; conditions: 0.25 to 1.5 μM cisplatin, 5 days, compared to untreated control cells
Experimental: Soft agar assays were conducted in order to investigate the ability of anti-Axl antibodies of the invention to inhibit anchorage-independent cell growth either alone or in combination with chemotherapeutic agents. The soft agar colony formation assay is a standard in vitro assay to test for transformed cells, as only transformed cells are able to grow in soft agar.
In brief, 750 C-8161 melanoma cells either remained untreated or were pre-incubated with the antagonistic rat anti-Axl antibody 11B7 at 15 μg/ml in IMDM medium (Gibco) for 30 min at 37° C. Subsequently, cells were combined with Difco noble agar solution resulting in 50 μl of top agar cell suspension at concentrations of Agar, FCS, and 11B7 of 0.35%, 0.2%, and 7.5 μg/ml, respectively. This cell suspension was plated on top of 50 μl of a 0.7% agarose bottom layer containing 20% FCS, and was finally covered with another 50 μl of a feeding layer solution that contains 0.2% FCS as well as cisplatin in according concentrations. In the whole of 150 μl per sample, the final concentrations of 11B7 and cisplatin were 2.5 μg/ml and 1.5 μM, 1.0 μM, 0.75 μM, 0.5 μM, or 0.25 μM, respectively. Colonies were allowed to form for 5 days and were then stained with 50 μl MTT (Sigma, 1 mg/ml in PBS) for 3 hours at 37° C. Using a Scanalyzer HTS camera system in conjunction with the HTS Bonit colony formation software (Lemnatec, Wuerselen), the effect of the antagonistic rat anti-Axl antibody 11B7 in the absence or presence of cisplatin were analyzed in triplicates.

[1] = tested on: NCI/ADR-RES ovarian cancer cells; assay: TUNEL staining, combination with doxorubicin; conditions: 24 h
Text: As rat anti-Axl antibodies of the invention turned out to interfere with Gas6-mediated anti-apoptosis of serum-starved NIH3T3-Axl cl.7 fibroblasts, the question arose, whether antagonistic anti-Axl antibodies would synergize with chemotherapeutic agents in inducing apoptosis, thereby contributing to overcome drug resistance. In this example, NCI/ADR-RES (originally named MCF-7/AdrR) cells—a ovarian cancer cell line (Liscovitch and Ravid, 2007, Cancer Letters, 245, 350-352) displaying a high level of resistance to several agents including doxorubicin (Fairchild et al., 1987, Cancer Research, 47, 5141-5148; Xu et al., 2002, The Journal of Pharmacology and Experimental Therapeutics, 302, 963-971)—were incubated with the antagonistic anti-Axl antibody 11B7 and/or doxorubicin, and apoptosis rates were determined by TUNEL staining. In brief, 3×10^4 NCI/ADR-RES cells in normal growth medium were seeded per well of an 8-chamber culture slide (BD Falcon, cat#354118) which were pre-incubated with the same medium for 1 h at 37° C. The next morning, normal growth medium was removed and cells were washed with and cultured in serum-reduced (0.5% FCS) medium. In the evening, isotypic control antibody 1D5 or the antagonistic anti-Axl antibody 11B7 were added at final concentrations of 10 μg/ml each. In the morning of day 3, doxorubicin at final concentrations of 100 μM, 150 μM, or 200 μM was added, and cells were incubated at 37° C. After 24 h, cells were rinsed once with PBS, fixed with 4% formaldehyde in PBS (pH 7.5) for 20 min at room temperature, air-dried for 5 min, and stored at −20° C. Using the commercially available Fluorescein-FragEL™ kit (Oncogene, cat#QIA39, presently being distributed through Merck-Calbiochem), TUNEL staining was performed according to the supplier's manual instructions (chapter ‘Fluorescein-FragEL™ of cell preparations fixed on slides’, page 10). Applying fluorescence microscopy, cells were analyzed and photos were taken.

[2] = tested on: NCI-H292 lung cancer cells; assay: Wound healing/scratch assay; conditions: 10 μg/ml antibody, 24 h, compared to isotypic control antibody
Text: To examine the migration and proliferation rates of different cells and culture conditions, in vitro wound healing/scratch assays are being employed for many years. These assays generally involve growing a confluent cell monolayer first. A small area is then disrupted and a group of cells are being destroyed or displaced by scratching a line through the layer with, for example, a pipette tip. The open gap is then inspected microscopically over time as the cells move in and fill the damaged area (“healing”). In brief, 1.5×10^6 NCI-H292 lung cancer cells were seeded per well of a 12 well dish and cultured in normal growth medium (RPMI, 10% FCS). After 8 h, cells were rinsed with PBS and starved in low serum medium (RPMI, 0.5% FCS) over night for 24 h. Using a sterile 200 μl pipette tip, three separate uniform wounds per well were scratched through the confluent NCI-H292 cell monolayers. […] Cells were permitted to migrate into the area of clearing for 24 h, washed once with PBS and fixed with ice cold Methanol (100%) at −20° C. After cells were stained with crystal violet (0.5% in 20% Methanol), rinsed with water and dried over night, photos of the wounds were taken.

## N.N.[Cl][Pt][Cl] [cisplatin, reference compound]
C-8161 melanoma cells
  soft agar colony growth, cisplatin alone: colony growth retardation in a dose-dependent manner

## COc1cccc2c1C(=O)c1c(O)c3c(c(O)c1C2=O)C[C@@](O)(C(=O)CO)C[C@@H]3O[C@H]1C[C@H](N)[C@H](O)[C@H](C)O1 [doxorubicin, reference compound]
[1]; 100 μM doxorubicin + 10 μg/ml control antibody
  apoptosis (TUNEL staining), doxorubicin with control antibody, 100 μM: No TUNEL staining, and hence no apoptosis
[1]; 150 μM doxorubicin + 10 μg/ml control antibody
  apoptosis (TUNEL staining), doxorubicin with control antibody, 150 μM: only very week apoptosis

B1: ch11B7-IgG2: chimeric anti-AXL antibody 11B7 with human IgG2 (antibody)
heavy: EVQLQESGPGLVKPSQSLSLTCSVTGYSITSNYWGWIRKFPGDKMEWMGYITYSGSTSYNPSLKSRISITRDTSKNQFFLQLNSVTSEDTATYYCAITTFYYWGQGVMVTVSSASTKGPSVFPLAPCSRSTSESTAALGCLVKDYFPEPVTVSWNSGALTSGVHTFPAVLQSSGLYSLSSVVTVPSSNFGTQTYTCNVDHKPSNTKVDKTVERKCCVECPPCPAPPVAGPSVFLFPPKPKDTLMISRTPEVTCVVVDVSHEDPEVQFNWYVDGVEVHNAKTKPREEQFNSTFRVVSVLTVVHQDWLNGKEYKCKVSNKGLPAPIEKTISKTKGQPREPQVYTLPPSREEMTKNQVSLTCLVKGFYPSDIAVEWESNGQPENNYKTTPPMLDSDGSFFLYSKLTVDKSRWQQGNVFSCSVMHEALHNHYTQKSLSLSPGK
light: DIQMTQAPSSLPASLGDRVTITCRASQDIGNYLRWFQQKPGKSPRLMISGATNLAAGVPSRFSGSRSGSDYSLTISSLESEDMADYYCLQSKESPWTFGGGTKLELKRTVAAPSVFIFPPSDEQLKSGTASVVCLLNNFYPREAKVQWKVDNALQSGNSQESVTEQDSKDSTYSLSSTLTLSKADYEKHKVYACEVTHQGLSSPVTKSFNRGEC
[2]
  re-population of the cleared area (wound closure): reduced the re-population of the cleared area

B2: Ch11D5-IgG2: chimeric anti-AXL antibody 11D5 with human IgG2 (antibody)
heavy: EVQLQESGPGLVKPSQSLSLTCSVTGYSITSNYWGWIRKFPGNKMEWIGHITNSGNTTYNPSLKSRISISRDTSRNQFFLQLNSVTTEDTATYYCAKGAFDYWGQGVMVTVSSASTKGPSVFPLAPCSRSTSESTAALGCLVKDYFPEPVTVSWNSGALTSGVHTFPAVLQSSGLYSLSSVVTVPSSNFGTQTYTCNVDHKPSNTKVDKTVERKCCVECPPCPAPPVAGPSVFLFPPKPKDTLMISRTPEVTCVVVDVSHEDPEVQFNWYVDGVEVHNAKTKPREEQFNSTFRVVSVLTVVHQDWLNGKEYKCKVSNKGLPAPIEKTISKTKGQPREPQVYTLPPSREEMTKNQVSLTCLVKGFYPSDIAVEWESNGQPENNYKTTPPMLDSDGSFFLYSKLTVDKSRWQQGNVFSCSVMHEALHNHYTQKSLSLSPGK
light: DIQMTQSPSSMSTSLGDRVTITCRASQDIGNYLSWFQQKVGKSPRRMIYGAIKLAVGVPSRFSGSRSGSDYSLTISSLESEDMAIYYCLQYIQFPLTFGSGTKLELKRTVAAPSVFIFPPSDEQLKSGTASVVCLLNNFYPREAKVQWKVDNALQSGNSQESVTEQDSKDSTYSLSSTLTLSKADYEKHKVYACEVTHQGLSSPVTKSFNRGEC
[2]
  re-population of the cleared area (wound closure): reduced the re-population of the cleared area
